# Results published in the supplement of paper PMC10307832.
# What was measured:
# Test in all cases: relative viability (nuclei count vs DMSO), 5 days (fraction); higher = more cells survive
# RAF265 + Alpelisib = compound: Cn1c(Nc2ccc(C(F)(F)F)cc2)nc2cc(Oc3ccnc(-c4ncc(C(F)(F)F)[nH]4)c3)ccc21 [RAF265] + Cc1nc(NC(=O)N2CCC[C@H]2C(N)=O)sc1-c1ccnc(C(C)(C)C(F)(F)F)c1 [Alpelisib] (partner 2 µM)
# In short: (§1)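 Relative viability was taken as the ratio of nuclei in treated wells to nuclei in vehicle wells. Lung cancer cell lines in 1536-well plates received compounds by pin tool one day after seeding, either one drug alone or a fixed anchor-drug dose plus five library-drug doses (not always all listed) in √10 steps. Nuclei were counted on 4× images after 5 days of treatment, and values are medians of duplicate plates.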
# Doramapimod + OSI-027 = compound: Cc1ccc(-n2nc(C(C)(C)C)cc2NC(=O)Nc2ccc(OCCN3CCOCC3)c3ccccc23)cc1 [Doramapimod] + COc1cccc2cc(-c3nc([C@H]4CC[C@H](C(=O)O)CC4)n4ncnc(N)c34)[nH]c12 [OSI-027] (partner 0.5 µM)
# In short: as §1
# IPA-3 + Vorinostat = compound: C1=CC=C2C(=C1)C=CC(=C2SSC3=C(C=CC4=CC=CC=C43)O)O [IPA-3] + O=C(CCCCCCC(=O)Nc1ccccc1)NO [Vorinostat] (partner 1 µM)
# In short: as §1
# IPA-3 + OSI-027 = compound: C1=CC=C2C(=C1)C=CC(=C2SSC3=C(C=CC4=CC=CC=C43)O)O [IPA-3] + COc1cccc2cc(-c3nc([C@H]4CC[C@H](C(=O)O)CC4)n4ncnc(N)c34)[nH]c12 [OSI-027] (partner 0.5 µM)
# In short: as §1
Cell Line,relative viability (RAF265 + Alpelisib; first compound 0.01 µM),relative viability (RAF265 + Alpelisib; first compound 0.03162 µM),relative viability (RAF265 + Alpelisib; first compound 0.1 µM),relative viability (RAF265 + Alpelisib; first compound 0.3162 µM),relative viability (RAF265 + Alpelisib; first compound 1 µM),relative viability (Doramapimod + OSI-027; first compound 0.02 µM),relative viability (Doramapimod + OSI-027; first compound 0.06325 µM),relative viability (Doramapimod + OSI-027; first compound 0.2 µM),relative viability (Doramapimod + OSI-027; first compound 0.6325 µM),relative viability (Doramapimod + OSI-027; first compound 2 µM),relative viability (IPA-3 + Vorinostat; first compound 0.2 µM),relative viability (IPA-3 + Vorinostat; first compound 0.6325 µM),relative viability (IPA-3 + Vorinostat; first compound 2 µM),relative viability (IPA-3 + Vorinostat; first compound 6.325 µM),relative viability (IPA-3 + Vorinostat; first compound 20 µM),relative viability (IPA-3 + OSI-027; first compound 0.2 µM),relative viability (IPA-3 + OSI-027; first compound 0.6325 µM),relative viability (IPA-3 + OSI-027; first compound 2 µM),relative viability (IPA-3 + OSI-027; first compound 6.325 µM),relative viability (IPA-3 + OSI-027; first compound 20 µM)
NCI-H358,0.984,0.6,0.477,0.382,0.282,0.746,0.699,0.634,0.858,0.681,0.785,0.618,0.783,0.619,0.803,0.895,0.733,0.746,0.69,0.758
H3255,0.706,0.836,0.691,–,0.455,0.684,0.618,0.526,0.679,0.518,1.05,0.759,0.801,0.791,0.967,0.609,0.566,0.677,0.508,0.62
NCI-H2228,0.791,0.718,0.436,0.299,0.29,0.779,0.513,0.571,0.671,0.388,0.953,0.809,0.633,0.552,0.737,0.991,0.476,0.62,0.559,0.435
CAL-12T,1.26,1.04,0.944,0.575,0.354,0.627,0.672,0.579,0.711,0.532,1,0.58,0.773,0.762,1.13,0.884,0.63,0.676,0.475,0.656
A-427,1.17,1.01,0.976,0.723,0.402,0.435,0.498,0.578,–,0.402,0.858,0.88,0.9,0.918,0.853,0.432,0.438,0.491,0.388,0.451
HARA,0.762,0.708,0.736,0.477,0.287,0.482,0.371,0.392,–,0.327,0.48,0.509,0.421,0.653,0.447,0.605,0.45,0.479,0.396,0.606
NCI-H1793,0.709,0.914,0.66,0.477,0.293,0.238,0.262,0.278,0.36,0.242,1.12,0.714,0.64,0.712,0.687,0.286,0.136,0.291,0.314,0.323
NCI-H1623,–,–,–,–,–,0.47,0.475,0.478,0.457,0.397,–,–,–,–,–,0.466,0.436,0.431,0.413,0.375
